From US10407408B2, “Imide derivatives and use thereof as medicine” (MITSUBISHI TANABE PHARMA CORPORATION, priority 2015, dated 2019)
Where a name gives a salt, the structure may show the parent alone.

system: proMMP-9 production by human TNFα stimulated THP-1 cell; experiment: Action on proMMP-9 production by human TNFα stimulated THP-1 cell (ELISA of culture supernatant); type: cell-based; conditions: THP-1 cells, human TNFα 10 ng/mL, 24 hr; IC50 from 3 concentrations (5, 50, 500 or 1, 10, 100 nmol/L); read-out: proMMP-9 suppression rate IC50
Procedure: Experimental Example 1: Action of Human TNFα Stimulated THP-1 Cell on proMMP-9 Production
THP-1 cell (human monocytic leukemia cell line) was adjusted to 1×10^7 cells/mL in a culture medium (10% fetal bovine serum/RPMI1640 medium), and dispensed to a 96 well multiplate. This was equilibrated under the conditions of 37° C./5% CO2, and a culture medium containing human TNFα (final concentration 10 ng/mL) and a test compound was dissolved therein. After incubation under the conditions of 37° C./5% CO2 for 24 hr, the culture medium was centrifuged and the culture supernatant was collected, which was subjected to the following measurement.
Quantification of proMMP-9 in Culture Supernatant
The proMMP-9 concentration of the collected culture supernatant was quantified using a commercially available measurement reagent (manufactured by GE Healthcare, MMP-9, Human, Biotrak ELISA System).
Calculation of proMMP-9 Suppression Rate
The proMMP-9 suppression rate of the test compound was calculated from the following formula: % suppression=100−((Test−Min)/(Max−Min)×100) wherein Max is proMMP-9 concentration of culture supernatant induced by stimulation with human TNFα, without addition of a test compound (added with solvent alone) Min is proMMP-9 concentration of culture supernatant without addition of a test compound (added with solvent alone) and without stimulation with human TNFα, and Test is proMMP-9 concentration of culture supernatant induced by stimulation with human TNFα when a test compound is added.
Furthermore, the concentration of the test compound necessary for suppressing proMMP-9 production by human TNFα stimulated THP-1 cell by 50% (IC50 value) was calculated from 3 points of proMMP-9 suppression rate at test compound concentrations of 5, 50 and 500 nmol/L or 1, 10 and 100 nmol/L.
MMP-9 is produced as a precursor proMMP-9 by the stimulated cells, extracellularly activated and expresses the physiological activity as MMP-9. That is, evaluation of the suppression of proMMP-9 produced by the cell means evaluation of the suppression of production of MMP-9. The same applies to MMP-2, and evaluation of the suppression of proMMP-2 produced by the cell means evaluation of the suppression of production of MMP-2.

Row | IC50 | Compound
1 | 115 nM | CC(=O)OCN1C(=O)N[C@](C)(c2ccc(C(=O)N3CCC(n4cc5cc(C)cc(C)c5n4)CC3)cc2)C1=O [Example 350, acetic acid (R)-4-{4-[4-(5,7-dimethylindazol-2-yl)piperidine-1-carbonyl]phenyl]-4-methyl-2,5-dioxoimidazolidin-1-ylmethyl ester]
2 | 13 nM | CC(C)[C@]1(c2ccc(C(=O)N3CCC(c4nc5cc(C(F)(F)F)ccc5s4)CC3)cc2)NC(=O)NC1=O [Example 262, (R)-5-isopropyl-5-{4-[4-(5-trifluoromethylbenzothiazol-2-yl)piperidine-1-carbonyl]phenyl}imidazolidine-2,4-dione]
3 | 27 nM | CC(C)[C@]1(c2ccc(C(=O)N3CCN(c4nc5ccccc5n4C)CC3)cc2)NC(=O)NC1=O [Example 243, (R)-5-isopropyl-5-{4-[4-(l-methyl-1H-benzimidazol-2-yl)piperazine-1-carbonyl]phenyl}imidazolidine-2,4-dione]
4 | 16 nM | CC[C@]1(c2ccc(C(=O)N3CCC(c4cnn(-c5ccc(C)cc5)c4)CC3)cc2)NC(=O)NC1=O [Example 27, (R)-5-ethyl-5-{4-[4-(1-p-tolyl-1H-pyrazol-4-yl)piperidine-1-carbonyl]phenyl}imidazolidine-2,4-dione]
5 | < 3 nM | COCC1(c2ccc(C(=O)N3CCC(c4coc5cc(C)cc(C)c45)CC3)cn2)CC(=O)NC1=O (stereo not drawn) [Example 343, 3-{5-[4-(4,6-dimethyl-benzofuran-3-yl)piperidine-1-carbonyl]pyridin-2-yl}-3-methoxymethyl-pyrrolidine-2,5-dione]
6 | 19 nM | Cc1cnc(N[C@@H]2CN(C(=O)c3ccc([C@@]4(C(C)C)NC(=O)NC4=O)cc3)C[C@H]2O)c(C)c1 [Example 187, (R)-5-{4-[(3R,4R)-3-(3,5-dimethylpyridin-2-ylamino)-4-hydroxypyrrolidine-1-carbonyl]phenyl}-5-isopropylimidazolidine-2,4-dione]
7 | 64 nM | COC(=O)[C@@H]1CN(c2ncc(C)cc2C)CCN1C(=O)c1ccc([C@@]2(C(C)C)NC(=O)NC2=O)cc1 [Example 64, (S)-4-(3,5-dimethylpyridin-2-yl)-1-[4-((R)-4-isopropyl-2,5-dioxoimidazolidin-4-yl)benzoyl]piperazine-2-carboxylic acid methyl ester]
8 | 5 nM | Cc1ccc2nc(C3CCN(C(=O)c4ccc([C@@]5(C)NC(=O)NC5=O)cc4)CC3)oc2c1 [Example 267, (R)-5-methyl-5-{4-[4-(6-methylbenzoxazol-2-yl)piperidine-1-carbonyl]phenyl}imidazolidine-2,4-dione]
9 | 1 nM | CC[C@]1(c2ccc(C(=O)N3CCN(c4ncc(C)cc4C)CC3)cc2)NC(=O)NC1=O [Example 124, (R)-5-{4-[4-(3,5-dimethylpyridin-2-yl)piperazine-1-carbonyl]phenyl}-5-ethylimidazolidine-2,4-dione]
10 | 34 nM | CCC1(c2ccc(C(=O)N3CCC(c4cn(-c5ccc(C)cc5)nn4)CC3)cc2F)NC(=O)NC1=O (stereo not drawn) [Example 178, 5-ethyl-5-{2-fluoro-4-[4-(1-p-tolyl-1H-[1,2,3]triazol-4-yl)piperidine-1-carbonyl]phenyl}imidazolidine-2,4-dione]
11 | 6 nM | Cc1cnc(N2CCN(C(=O)c3ccc(C4(C(C)C)NC(=O)NC4=O)c(O)c3)CC2)c(C)c1 (stereo not drawn) [Example 20, 5-{4-[4-(3,5-dimethylpyridin-2-yl)piperazine-1-carbonyl]-2-hydroxyphenyl}-5-isopropylimidazolidine-2,4-dione]
12 | < 1 nM | Cc1cc(C2CC2)cnc1N1CCN(C(=O)c2ccc(C3(C4CCC4)NC(=O)NC3=O)cc2)CC1 (stereo not drawn) [Example 322, 5-cyclobutyl-5-{4-[4-(5-cyclopropyl-3-methylpyridin-2-yl)piperazine-1-carbonyl]phenyl}imidazolidine-2,4-dione]
13 | 15 nM | Cc1ccc2c(C3CCN(C(=O)c4ccc([C@@]5(C)NC(=O)NC5=O)cc4)CC3)c[nH]c2c1 [Example 345, (R)-5-methyl-5-{4-[4-(6-methyl-1H-indol-3-yl)piperidine-1-carbonyl]phenyl}imidazolidine-2,4-dione]
14 | 76 nM | Cc1ccc2nc(C3CCN(C(=O)c4ccc([C@@]5(C(C)C)NC(=O)NC5=O)cc4)CC3)sc2n1 [Example 222, (R)-5-isopropyl-5-{4-[4-(5-methylthiazolo[5,4-b]pyridin-2-yl)piperidine-1-carbonyl]phenyl}imidazolidine-2,4-dione]
15 | 14 nM | Cc1cnc(N2CCN(C(=O)c3ccc(C4(C(C)(C)C)NC(=O)NC4=O)cc3)CC2)c(C)n1 (stereo not drawn) [Example 137, 5-tert-butyl-5-[4-(3′,5′-dimethyl-2,3,5,6-tetrahydro[1,2′]bipyrazinyl-4-carbonyl)phenyl]imidazolidine-2,4-dione]
16 | 88 nM | CC[C@]1(c2ccc(C(=O)N3CCC(c4cn(-c5ccc(C)cc5)cn4)CC3)cc2)NC(=O)NC1=O [Example 175, (R)-5-ethyl-5-{4-[4-(1-p-tolyl-1H-imidazol-4-yl)piperidine-1-carbonyl]phenyl}imidazolidine-2,4-dione]
17 | 84 nM | CC(C)[C@]1(c2ccc(C(=O)N3CCC(c4nnc(-c5ccccc5)s4)CC3)cc2)NC(=O)NC1=O [Example 227, (R)-5-isopropyl-5-{4-[4-(5-phenyl[1,3,4]thiadiazol-2-yl)piperidine-1-carbonyl]phenyl}imidazolidine-2,4-dione]
18 | 67 nM | Cc1cnc(N2CCN(C(=O)c3ccc(C4(C(C)C)C(=O)NC(=O)N4C)cc3)CC2)c(C)c1 (stereo not drawn) [Example 182, 5-{4-[4-(3,5-dimethylpyridin-2-yl)piperazine-1-carbonyl]phenyl}-5-isopropyl-1-methylimidazolidine-2,4-dione]
19 | 70 nM | Cc1nnc(N2CCN(C(=O)c3ccc([C@@]4(C(C)C)NC(=O)NC4=O)cc3)CC2)c(C)c1C [Example 141, (R)-5-isopropyl-5-{4-[4-(4,5,6-trimethylpyridazin-3-yl)piperazine-1-carbonyl]phenyl}imidazolidine-2,4-dione]
20 | 55 nM | Cc1cnc2nc(C3CCN(C(=O)c4ccc([C@@]5(C(C)C)NC(=O)NC5=O)cc4)CC3)sc2c1 [Example 220, (R)-5-isopropyl-5-{4-[4-(6-methylthiazolo[4,5-b]pyridin-2-yl)piperidine-1-carbonyl]phenyl}imidazolidine-2,4-dione]
21 | 82 nM | Cc1cnc(NC2CN(C(=O)c3ccc([C@@]4(C(C)C)NC(=O)NC4=O)cc3)C2)c(C)c1 [Example 185, (R)-5-{4-[3-(3,5-dimethylpyridin-2-ylamino)azetidine-1-carbonyl]phenyl}-5-isopropylimidazolidine-2,4-dione.hydrochloride]
22 | 9 nM | Cc1cnc(N2CCN(C(=O)c3ccc([C@@]4(C(C)C)NC(=O)NC4=O)cc3)C3(CCC3)C2)c(C)c1 [Example 65, (R)-5-{4-[8-(3,5-dimethylpyridin-2-yl)-5,8-diazaspiro[3.5]nonane-5-carbonyl]phenyl}-5-isopropylimidazolidine-2,4-dione]
23 | 14 nM | Cc1ccc(OC2CCN(C(=O)c3ccc([C@@]4(C)NC(=O)NC4=O)cc3)CC2)cc1 [Example 152, (R)-5-methyl-5-[4-(4-p-tolyloxypiperidine-1-carbonyl]phenyl}imidazolidine-2,4-dione]
24 | < 5 nM | Cc1cc(C)c2c(cnn2C2CCN(C(=O)c3ccc([C@@]4(C(C)C)NC(=O)NC4=O)cc3)CC2)c1 [Example 272, (R)-5-{4-[4-(5,7-dimethylindazol-1-yl)piperidine-1-carbonyl]phenyl}-5-isopropylimidazolidine-2,4-dione]
